Test results reported in US10123985B2, “Therapeutic strategies for treating mitochondrial disorders” (Whitehead Institute for Biomedical Research, priority 2015, dated 2018).
Entries after “also recorded” stand apart in the source; their conditions may differ.

Experiments:
143B cells [1] = test: Proliferation assay of wild-type 143B cells treated with respiration inhibitors; format: cell-based; conditions: for Proliferation of respiration-inhibited 143B cells with supplementation: rotenone, phenformin, antimycin, myxothiazol, azide or oligomycin plus the substance; for Proliferation of rotenone treated 143B cells: wide range of rotenone doses, 1 mM AKB or 20 mM aspartate, 4 days
Protocol: 143B, A172, H1299, HeLa, U87 and MEF cells were cultured in Dulbecco's Modified Eagle's Medium (DMEM) (Gibco) supplemented with 10% fetal bovine serum (FBS) and penicillin-streptomycin. FL5.12 cells were cultured in the same medium and supplemented with 5 μg/mL recombinant mouse IL-3 (R&D Systems). 143B cybrid cell lines (WT Cybrid and CytB) were cultured in DMEM with 10% FBS, penicillin-streptomycin, and 0.1 mg/mL uridine. All cells incubated at 37° C. with 5% CO2.
Adherent cell lines growing in log phase were trypsinized, counted, and plated onto 6 well dishes (Corning) in 2 mL complete DMEM and incubated overnight. Initial seeding density was 2E4 cells per well for 143B, A172, H1299, HeLa, 143B WT Cybrid, and MEFs and 3E4 cells for 143B CytB and U87 cells. The following day, one plate of cells was counted to determine the initial cell count at the time of treatment. Cells were washed 2 times with 2 mL phosphate buffered saline (PBS) and 4 mL media premixed with the indicated treatments was added. FL5.12 cells, a suspension cell line, were washed 2 times in PBS and added directly to media containing the indicated treatments and 5 μg/mL recombinant mouse IL-3. Proliferation rate assay media was DMEM without pyruvate containing 10% dialyzed FBS, penicillin-streptomycin, and 0.1 mg/mL uridine, unless otherwise noted. For these cell lines at these seeding densities it was determined that for 4 days the cells maintained logarithmic proliferation (data not shown), therefore final cell counts were measured 4 days after treatment. Cells were counted using Cellometer Auto T4 Plus Cell Counter (Nexcelom Bioscience). Proliferation rate was determined using the following formula: Proliferation Rate (Doublings per day)=(log2(Final cell count (day 5)/Initial cell count (day 1))/4 (days)

[2] = test system: lactate dehydrogenase (LDH); test: Lactate dehydrogenase assay (disappearance of NADH absorbance); format: biochemical; conditions: 1 mM α-ketobutyrate, 180 μM NADH, absorbance at 340 nm
Protocol: Immediately prior to the start of the assay 100 μL of a reaction buffer containing 50 mM HEPES-KOH pH 7.5, 20 mM KCl, 2 mM MgCl2, 1 mM DTT, 180 μM NADH, 1 mM α-ketobutyrate (where applicable) was combined with LDH (where applicable) in 96-well plates. Lactate dehydrogenase activity was assayed by monitoring disappearance of NADH absorbance at 340 nm over time.

[3] = test system: 143B WT cybrid and 143B CytB cells; test: Mitochondrial oxygen consumption (Seahorse XF24), cybrid cells; format: cell-based; conditions: presence or absence of the substance
Protocol: Oxygen consumption rates were determined on a Seahorse Bioscience Extracellular Flux Analyzer (XF24). Cells were plated in Seahorse Bioscience 24 well plates at 6E4 cells per well in 100 μL complete DMEM, allowed to attach for 1 hour, and 500 μl complete DMEM was added before overnight incubation. The following day cells were washed 2 times in assay media: DMEM without phenol red or pyruvate containing 0.5% dialyzed FBS and 0.1 mg/mL uridine at pH 7.4 and incubated in 500 μL of the same media for the assay. Oxygen consumption measurements were compared either, between basal measurements and following injection of the compound (AKB, rotenone, antimycin), or between wells cultured overnight in their treatment conditions (aspartate, oligomycin, FCCP). The latter conditions were used due to solubility constraints (aspartate) or kinetic constraints of the compound (oligomycin). These measurements were then subtracted from oxygen consumption measurements following addition of high dose rotenone and antimycin treatment (2 μM each) to determine the mitochondria specific oxygen consumption rate. Following measurements, the number of cells in the wells was counted, averaged for each treatment condition, and the mitochondrial oxygen consumption rates were normalized to 1E5 cells.

143B CytB cells = test: Purine nucleotide extraction and LC-MS analysis; format: cell-based
Protocol: 143B CytB cells were seeded at 400,000 cells/well in 6 well dishes overnight. The following day, cells were washed 2 times in PBS and media was changed to proliferation assay media with or without the indicated treatments. After 15 hours polar metabolites were extracted from cells using 250 μL of ice cold 80% methanol. After scraping the cells, 250 μL of chloroform was added before vortexing for 10 min at 4° C. and centrifugation for 10 min at 4° C. at 16,000 g, 40 μL of the top, water-methanol, layer was transferred into a LC-MS tube and samples were analyzed. A Dionex UltiMate 3000 ultra-high performance liquid chromatography system connected to a Q Exactive benchtop Orbitrap mass spectrometer, equipped with an Ion Max source and a HESI II probe (Thermo Fisher Scientific) was used to quantify metabolites. Samples were separated by chromatography by injecting 10 μL of sample on a SeQuant ZIC-pHILIC Polymeric column (2.1×150 mm 5 μM, EMD Millipore). Flow rate was set to 150 μL/min, temperatures were set to 25° C. for column compartment and 4° C. for autosampler sample tray. Mobile Phase A consisted of 20 mM ammonium carbonate, 0.1% ammonium hydroxide. Mobile Phase B was 100% acetonitrile. The mobile phase gradient (% B) was set in the following protocol: 0-20 min.: linear gradient from 80% to 20% B; 20-20.5 min.: linear gradient from 20% to 80% B; 20.5-28 min.: hold at 80% B. Mobile phase was introduced into the ionization source set to the following parameters: sheath gas=40, auxiliary gas=15, sweep gas=1, spray voltage=−3.1 kV, capillary temperature=275° C., S-lens RF level=40, probe temperature=350° C. Metabolites were monitored using full scan in negative mode in the range of 285-700 m/z, with the resolution set at 140,000, the AGC target at 106, and the maximum injection time at 250 msec. Relative quantitation of metabolites was performed with XCalibur QuanBrowser 2.2 (Thermo Fisher Scientific) using a 5 ppm mass tolerance and referencing an in-house retention time library of chemical standards.

143B cells [4] = test: Amino acid and TCA cycle metabolite GC-MS analysis, 143B cells; format: cell-based
Protocol: 143B and 143B CytB cells were seeded at 400,000 cells/well in 6 well dishes overnight. The following day, cells were washed 2 times in PBS and media was changed to proliferation assay media with or without the indicated treatments. […] Soluble content was then dried under nitrogen gas. Polar samples were derivatized and measured as detailed in (Lewis). Relative metabolite abundances were determined by integrating ion peak area (Metran) and normalized to norvaline internal extraction standard.

[5] = cells without AKB supplementation compared to AKB replete cells

| SMILES | Proliferation of respiration-inhibited 143B cells with supplementation (143B cells [1]) | Proliferation of rotenone treated 143B cells (143B cells [1]) | Regeneration of NAD+ from NADH by LDH [2] | Mitochondrial oxygen consumption rate [3] | IMP level (143B CytB cells; cells cultured without AKB compared to AKB replete cells) | AMP level (143B CytB cells; [5]) | GMP level (143B CytB cells; [5]) | AMP/IMP ratio (143B CytB cells; upon AKB withdrawal) | GMP/IMP ratio (143B CytB cells; upon AKB withdrawal) | Aspartate level with AKB treatment (143B cells [4]; 143B CytB cells and inhibitor-treated 143B cells, relative to untreated cells) | Intracellular aspartate levels (143B cells [4]; rotenone treated 143B cells, 24 hours, AKB or 1 mM asparagine) | AMP level (143B CytB cells; 143B CytB cells with aspartate) | GMP level (143B CytB cells; 143B CytB cells with aspartate) | IMP level (143B CytB cells; 143B CytB cells with aspartate) |
| --- | --- | --- | --- | --- | --- | --- | --- | --- | --- | --- | --- | --- | --- | --- |
| CCC(=O)C(=O)O [AKB, α-ketobutyrate] | rescued proliferation, with proliferation rates comparable to that observed in untreated cells | restore proliferation in 143B cells over a wide range of rotenone doses | capable of regenerating NAD^+ from NADH | does not alter oxygen consumption | increased levels | decreased | decreased | dramatically decrease | dramatically decrease | restored aspartate to levels comparable to, or higher than, untreated cells | increased intracellular aspartate | – | – | – |
| N[C@@H](CC(=O)O)C(=O)O [aspartate] | Proliferation was restored in response to all ETC inhibitors | restore proliferation in 143B cells over a wide range of rotenone doses | – | neither increased mitochondrial oxygen consumption | – | – | – | – | – | – | – | restores AMP pools | not restored; also recorded: actually lower | relieves the accumulation of IMP |
